Measurements taken from patent US20260234124A1, “Substituted Pyrazolyl-Pyridinyl Compounds as Ligand Directed Degraders of IRAK3” (Celgene Corporation, priority 2022, published 2026).

Target: T1, IRAK3-ePL (Homo sapiens, UniProt Q9Y616)
T1 construct: expressed in transfected cells; host or cells: 293T CRBN OE/GSPT1 G575N KI cells, lentiviral transduction, puromycin selection
Experiment: IRAK3-ePL overexpressing degradation assay
Type: cell-based
Conditions: IRAK3-ePL Lenti-X 293T CRBN/GSPT1 G575N cells, overnight incubation, top dose 10 μM; for Dmax: HEK-293T, maximum percentage loss of target protein; for DC50: read-out: IRAK3 ePL degradation EC50
Experimental: Example B1. IRAK3-ePL Overexpressing Degradation Assay
Stable cell lines were generated by the following protocol. 3×10^5 Lenti-X 293T cells (Clonetech) were plated in 0.8 mL of media in a 12-well plate and incubated overnight at 37° C./5% CO2. Packaging plasmid (0.4 μg, pMD), envelope plasmid (0.4 μg, pSP), and lentiviral transfer IRAK3-ePL plasmid (0.8 μg, IRAK3 sequence NM_007199.3) were mixed in 0.1 mL of Opti-MEM and incubated for 5 min. Simultaneously, 2.4 μL of Lipofectamine 2000 (Invitrogen) was added to 0.1 mL of Opti-MEM (Gibco) and incubated for 5 min. The plasmid DNA and lipofectamine were combined and the mixture was allowed to incubate for 20 min. DNA:Lipofectamine Opti-MEM mixtures were then added to previously plated cells dropwise and the cells were incubated for ~16 h at 37° C./5% CO2. Following incubation, the media was removed and 1.2 mL of fresh media was added per well. Lenti-X 293T cells were incubated for ~30 h at 37° C./5% CO2. […] Following incubation, media was removed from the Lenti-X 293T wells and passed through a […]. Part of the viral supernatant was used to transduce cells and the rest was stored at −80° C. Viruses were then added individually (0.5 mL virus) to each well of the 293T^CRBN OE/GSPT1 G575N KI cells, followed by addition of polybrene (10 mg/mL Millipore) to each well at a final concentration of 5.0 μg/mL. Cells were incubated for ~24 h at 37° C./5% CO2. After aspirating media off plates, cells were washed with DPBS, trypsinized and plated in a 10 cm dish in 15 mL of media and 1 μg/mL puromycin. Following incubation of cells for ~72 h at 37° C./5% CO2, media was aspirated off plates, and cells were washed with DPBS and trypsinized. The cells were plated in a 15 cm dish in 40 mL of media with 1.0 μg/mL Puromycin (Gibco) and incubated for ~72 h at 37° C./5% CO2. Following incubation, media was removed and cells were washed with DPBS and trypsinized. The majority of cells were resuspended in Invitrogen freezing media and stored away (~6-8×10^6 cells/vial).
IRAK3-ePL cellular dose response curve degradation assays were performed by the following protocol. Compounds to be tested were dispensed into a white 384-well tissue-culture treated plate using an acoustic liquid handler. Dilutions were prepared based on a 25 μL assay volume in duplicate 10 point 3-fold serial dilutions starting with a 10 μM dose. Negative control wells were included, which only contain 0.2% DMSO to calculate 100% signal. Positive control wells containing 30 μM Ataluren (luciferase inhibitor) were included to calculate the background signal level. All wells were backfilled to a final DMSO concentration of 0.2% to ensure DMSO uniformity across wells. IRAK3-ePL expressing cells (IRAK3-ePL Lenti-X 293T^CRBN/GSPT1 G575N) were washed, trypsinized, counted, and resuspended in fresh DMEM (Gibco) to give a cell concentration of 200,000 cells/mL. 25 μL of cells (5,000 cells/well) were dispensed into the wells of the 384-well plate prespotted with compounds in the previous step and incubated overnight at 37° C./5% CO2. Following incubation, the 384-well plate was taken out of the incubator and left at room temperature for 30 min. InCELL hunter reagent was prepared according to manufacturer's instructions (EA reagent, lysis buffer, and substrate reagent in a 1:1:4 ratio, Cat #96-0002, DiscoverX), which was added to the 384-well plate 25 μL per well. Following the incubation of the plate for 1 h at room temperature, the luminescence signal was read using a ViewLux plate reader. Data was processed and analyzed in ActivityBase software. In short, the average luminescence values of the positive control wells were subtracted from the rest of the wells for background correction, and all luminescence values were normalized to the DMSO control wells. The average value of the DMSO control wells was set to equal 100% of the relative IRAK3-ePL protein levels. […]

In the case of `C[C@@H](Oc1cc(-c2cnn(C3CCN(C4CCC5(CC4)CCN(C(=O)c4ccc6c(c4)C(=O)N(C4CCC(=O)NC4=O)C6=O)CC5)CC3)c2)cnc1N)c1c(Cl)ccc(F)c1Cl` (stereo partly drawn) [Compound 18, 5-(9-(4-(4-(6-amino-5-((R)-1-(2,6-dichloro-3-fluorophenyl)ethoxy)pyridin-3-yl)-1H-pyrazol-1-yl)piperidin-1-yl)-3-azaspiro[5.5]undecane-3-carbonyl)-2-(2,6-dioxopiperidin-3-yl)isoindoline-1,3-dione], the Dmax is reported as 80% and the DC50 is reported as 0.066 µM.

For `Cc1ncsc1-c1ccc(CNC(=O)[C@@H]2C[C@@H](O)CN2C(=O)[C@@H](NC(=O)COCCOCCOCCN2CCC(n3cc(-c4cnc(N)c(O[C@H](C)c5c(Cl)ccc(F)c5Cl)c4)cn3)CC2)C(C)(C)C)cc1` [Compound 3, (2S,4R)-1-((S)-14-(4-(4-(6-amino-5-((R)-1-(2,6-dichloro-3-fluorophenyl)ethoxy)pyridin-3-yl)-1H-pyrazol-1-yl)piperidin-1-yl)-2-(tert-butyl)-4-oxo-6,9,12-trioxa-3-azatetradecanoyl)-4-hydroxy-N-(4-(4-methylthiazol-5-yl)benzyl)pyrrolidine-2-carboxamide], the Dmax was 13% and the DC50 was > 10 µM.

With `Cc1ncsc1-c1ccc(CNC(=O)[C@@H]2C[C@@H](O)CN2C(=O)[C@@H](NC(=O)COCCOCCN2CCC(n3cc(-c4cnc(N)c(O[C@H](C)c5c(Cl)ccc(F)c5Cl)c4)cn3)CC2)C(C)(C)C)cc1` [Compound 2, (2S,4R)-1-((S)-2-(2-(2-(2-(4-(4-(6-amino-5-((R)-1-(2,6-dichloro-3-fluorophenyl)ethoxy)pyridin-3-yl)-1H-pyrazol-1-yl)piperidin-1-yl)ethoxy)ethoxy)acetamido)-3,3-dimethylbutanoyl)-4-hydroxy-N-(4-(4-methylthiazol-5-yl)benzyl)pyrrolidine-2-carboxamide] the Dmax was 25% and the DC50 was > 10 µM.

`Cc1ncsc1-c1ccc(CNC(=O)[C@@H]2C[C@@H](O)CN2C(=O)[C@@H](NC(=O)COCCOCCOCCOCCOCCOCCN2CCC(n3cc(-c4cnc(N)c(O[C@H](C)c5c(Cl)ccc(F)c5Cl)c4)cn3)CC2)C(C)(C)C)cc1` [Compound 6, (2S,4R)-1-((S)-23-(4-(4-(6-amino-5-((R)-1-(2,6-dichloro-3-fluorophenyl)ethoxy)pyridin-3-yl)-1H-pyrazol-1-yl)piperidin-1-yl)-2-(tert-butyl)-4-oxo-6,9,12,15,18,21-hexaoxa-3-azatricosanoyl)-4-hydroxy-N-(4-(4-methylthiazol-5-yl)benzyl)pyrrolidine-2-carboxamide] was tested, and the Dmax was 25% and the DC50 was > 10 µM.

In the case of `Cc1ncsc1-c1ccc(CNC(=O)[C@@H]2C[C@@H](O)CN2C(=O)[C@@H](NC(=O)COCCOCCOCCOCCOCCOCCOCCN2CCC(n3cc(-c4cnc(N)c(O[C@H](C)c5c(Cl)ccc(F)c5Cl)c4)cn3)CC2)C(C)(C)C)cc1` [Compound 7, (2S,4R)-1-((S)-26-(4-(4-(6-amino-5-((R)-1-(2,6-dichloro-3-fluorophenyl)ethoxy)pyridin-3-yl)-1H-pyrazol-1-yl)piperidin-1-yl)-2-(tert-butyl)-4-oxo-6,9,12,15,18,21,24-heptaoxa-3-azahexacosanoyl)-4-hydroxy-N-(4-(4-methylthiazol-5-yl)benzyl)pyrrolidine-2-carboxamide], the Dmax is reported as 38% and the DC50 is reported as > 10 µM.

In the case of `C[C@@H](Oc1cc(-c2cnn(C3CCN(CCOCCOCCNC(=O)COc4cccc5c4C(=O)N(C4CCC(=O)NC4=O)C5=O)CC3)c2)cnc1N)c1c(Cl)ccc(F)c1Cl` (stereo partly drawn) [Compound 10, N-(2-(2-(2-(4-(4-(6-amino-5-((R)-1-(2,6-dichloro-3-fluorophenyl)ethoxy)pyridin-3-yl)-1H-pyrazol-1-yl)piperidin-1-yl)ethoxy)ethoxy)ethyl)-2-((2-(2,6-dioxopiperidin-3-yl)-1,3-dioxoisoindolin-4-yl)oxy)acetamide], the Dmax is reported as 22% and the DC50 is reported as > 10 µM.

`Cc1ncsc1-c1ccc(CNC(=O)[C@@H]2C[C@@H](O)CN2C(=O)[C@@H](NC(=O)COCCOCCOCCOCCN2CCC(n3cc(-c4cnc(N)c(O[C@H](C)c5c(Cl)ccc(F)c5Cl)c4)cn3)CC2)C(C)(C)C)cc1` [Compound 4, (2S,4R)-1-((S)-17-(4-(4-(6-amino-5-((R)-1-(2,6-dichloro-3-fluorophenyl)ethoxy)pyridin-3-yl)-1H-pyrazol-1-yl)piperidin-1-yl)-2-(tert-butyl)-4-oxo-6,9,12,15-tetraoxa-3-azaheptadecanoyl)-4-hydroxy-N-(4-(4-methylthiazol-5-yl)benzyl)pyrrolidine-2-carboxamide] was tested, and the Dmax was 26% and the DC50 was > 10 µM.

In the case of `C[C@@H](Oc1cc(-c2cnn(C3CCN(CCNC(=O)COc4ccc5c(c4)C(=O)N(C4CCC(=O)NC4=O)C5=O)CC3)c2)cnc1N)c1c(Cl)ccc(F)c1Cl` (stereo partly drawn) [Compound 13, N-(2-(4-(4-(6-amino-5-((R)-1-(2,6-dichloro-3-fluorophenyl)ethoxy)pyridin-3-yl)-1H-pyrazol-1-yl)piperidin-1-yl)ethyl)-2-((2-(2,6-dioxopiperidin-3-yl)-1,3-dioxoisoindolin-5-yl)oxy)acetamide], the Dmax is reported as 70% and the DC50 is reported as 0.173 µM.
